Data: patent US6737383B1, “Herbicidal oxadiazolidines” (priority 1999, dated 2004)

Assays:
rape = assay: Test B pre/postemergence rape; assay type: in vivo, Brassica napus
How it was run: (§1)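 Test chemicals in a non-phytotoxic solvent mixture with surfactant were sprayed preemergence onto planted seeds and postemergence onto plants 2 to 18 cm tall (1- to 4-leaf stage). After twelve to sixteen days in a greenhouse, injury was visually rated against untreated controls from 0 (no effect) to 10 (complete control).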

bamyardgrass = assay: Test B flood test barnyardgrass; assay type: in vivo, Echinochloa crus-galli
How it was run: (§2)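 Flood test on plants grown to the 2-leaf stage; treated plants kept in greenhouse twelve to sixteen days, then visually rated against controls on a 0 (no effect) to 10 (complete control) scale.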

crabgrass = assay: Test B pre/postemergence crabgrass; assay type: in vivo, Digitaria sanguinalis
How it was run: as §1

cocklebur = assay: Test B pre/postemergence cocklebur; assay type: in vivo, Xanthium strumarium
How it was run: as §1

duck salad = assay: Test B flood test duck salad; assay type: in vivo, Heteranthera limosa
How it was run: as §2

bedstraw = assay: Test B pre/postemergence bedstraw; assay type: in vivo, Galium aparine
How it was run: as §1

morningglory = assay: Test B pre/postemergence morningglory; assay type: in vivo, Ipomoea hederacea
How it was run: as §1

pigweed = assay: Test B pre/postemergence pigweed; assay type: in vivo, Amaranthus retroflexus
How it was run: as §1

smallflower flatsedge = assay: Test B flood test smallflower flatsedge; assay type: in vivo, Cyperus difformis
How it was run: as §2

corn = assay: Test B pre/postemergence corn; assay type: in vivo, Zea mays
How it was run: as §1

purple nutsedge = assay: Test B pre/postemergence purple nutsedge; assay type: in vivo, Cyperus rotundus
How it was run: as §1

giant foxtail = assay: Test B pre/postemergence giant foxtail; assay type: in vivo, Setaria faberii
How it was run: as §1

surinam grass = assay: Test B pre/postemergence surinam grass; assay type: in vivo, Brachiaria decumbens
How it was run: as §1

sugar beet = assay: Test B pre/postemergence sugar beet; assay type: in vivo, Beta vulgaris
How it was run: as §1

blackgrass = assay: Test B pre/postemergence blackgrass; assay type: in vivo, Alopecurus myosuroides
How it was run: as §1

wheat = assay: Test B pre/postemergence wheat; assay type: in vivo, Triticum aestivum
How it was run: as §1

wild oat = assay: Test B pre/postemergence wild oat; assay type: in vivo, Avena fatua
How it was run: as §1

velvetleaf = assay: Test B pre/postemergence velvetleaf; assay type: in vivo, Abutilon theophrasti
How it was run: as §1

rice = assay: Test B flood test rice; assay type: in vivo, Oryza sativa
How it was run: as §2

soybean = assay: Test B pre/postemergence soybean; assay type: in vivo, Glycine max
How it was run: as §1

[1] = Postemergence, Rate 62 g/ha, scale 0 to 10, 0 is no effect, 10 is complete control
[2] = Postemergence, Rate 250 g/ha, scale of 0 to 10, 0 is no effect, 10 is complete control
[3] = Postemergence, Rate 500 g/ha, scale of 0 to 10 where 0 is no effect and 10 is complete control
[4] = Preemergence, Rate 62 g/ha, scale 0 to 10 (0 no effect, 10 complete control)
[5] = Preemergence, Rate 125 g/ha, scale of 0 to 10 where 0 is no effect and 10 is complete control
[6] = Preemergence, Rate 250 g/ha, scale 0 to 10 (0 no effect, 10 complete control)
[7] = Preemergence, Rate 500 g/ha, scale of 0 to 10 where 0 is no effect and 10 is complete control
[8] = Rate 62 g/ha, flood test species, Pre-emergence, visual evaluation after twelve to sixteen days
[9] = Rate 125 g/ha, under heading Pre-emergence, flood test species, visual evaluation after twelve to sixteen days
[10] = Rate 250 g/ha, Pre-emergence (flood test species), scale 0 to 10, 0 is no effect, 10 is complete control
[11] = Rate 500 g/ha, Pre-emergence section of Table B, 0 to 10 scale (0 no effect, 10 complete control)

CC(=O)NCn1c(=O)on(C(=O)N(c2ccc(F)cc2F)C(C)C)c1=O [Compound 622]
Plant response rating, Rape (rape; [1]): 0 | Rape plant response rating (rape; [2]): 0 | Plant response rating, Rape (rape; [3]): 0 | Rape plant response rating (rape; [4]): 0 | Rape plant response rating (rape; [5]): 0 | Plant response rating, Rape (rape; [6]): 0 | Plant response rating, Rape (rape; [7]): 0 | Plant response rating, Barnyardgrass (0 to 10 scale, 0 is no effect, 10 is complete control) (bamyardgrass; [8]): 0 | Barnyardgrass plant response rating (0 to 10 scale, 0 is no effect, 10 is complete control) (bamyardgrass; [9]): 0 | Barnyardgrass plant response rating (bamyardgrass; [10]): 0 | Barnyardgrass plant response rating (bamyardgrass; [11]): 0 | Plant response rating, Crabgrass (crabgrass; [1]): 2 | Plant response rating, Crabgrass (crabgrass; [3]): 5 | Crabgrass plant response rating (crabgrass; [4]): 6 | Crabgrass plant response rating (crabgrass; [5]): 6 | Plant response rating, Crabgrass (crabgrass; [6]): 7 | Plant response rating, Crabgrass (crabgrass; [7]): 8 | Plant response rating, Cocklebur (cocklebur; [1]): 0 | Cocklebur plant response rating (cocklebur; [2]): 0 | Plant response rating, Cocklebur (cocklebur; [3]): 2 | Cocklebur plant response rating (cocklebur; [4]): 0 | Cocklebur plant response rating (cocklebur; [5]): 0 | Plant response rating, Cocklebur (cocklebur; [6]): 0 | Plant response rating, Ducksalad (0 to 10 scale, 0 is no effect, 10 is complete control) (duck salad; [8]): 0 | Ducksalad plant response rating (0 to 10 scale, 0 is no effect, 10 is complete control) (duck salad; [9]): 0 | Ducksalad plant response rating (duck salad; [10]): 0 | Ducksalad plant response rating (duck salad; [11]): 0 | Plant response rating, Bedstraw (bedstraw; [1]): 0 | Bedstraw plant response rating (bedstraw; [4]): 0 | Bedstraw plant response rating (bedstraw; [5]): 0 | Plant response rating, Bedstraw (bedstraw; [7]): 2 | Plant response rating, Morningglory (morningglory; [1]): 0 | Morningglory plant response rating (morningglory; [2]): 2 | Plant response rating, Morningglory (morningglory; [3]): 2 | Morningglory plant response rating (morningglory; [4]): 0 | Morningglory plant response rating (morningglory; [5]): 0 | Plant response rating, Morningglory (morningglory; [6]): 0 | Plant response rating, Morningglory (morningglory; [7]): 0 | Plant response rating, Redroot pigweed (pigweed; [1]): 0 | Redroot pigweed plant response rating (pigweed; [2]): 0 | Redroot pigweed plant response rating (pigweed; [4]): 4 | Redroot pigweed plant response rating (pigweed; [5]): 7 | Plant response rating, Redroot pigweed (pigweed; [6]): 10 | Plant response rating, Redroot pigweed (pigweed; [7]): 10 | Plant response rating, S. Flatsedge (0 to 10 scale, 0 is no effect, 10 is complete control) (smallflower flatsedge; [8]): 0 | S. Flatsedge plant response rating (0 to 10 scale, 0 is no effect, 10 is complete control) (smallflower flatsedge; [9]): 0 | S. Flatsedge plant response rating (smallflower flatsedge; [10]): 0 | S. Flatsedge plant response rating (smallflower flatsedge; [11]): 0 | Plant response rating, Corn (corn; [1]): 0 | Corn plant response rating (corn; [2]): 0 | Plant response rating, Corn (corn; [3]): 0 | Corn plant response rating (corn; [4]): 0 | Corn plant response rating (corn; [5]): 0 | Plant response rating, Corn (corn; [6]): 0 | Plant response rating, Corn (corn; [7]): 0 | Plant response rating, Nutsedge (purple nutsedge; [1]): 0 | Nutsedge plant response rating (purple nutsedge; [2]): 0 | Plant response rating, Nutsedge (purple nutsedge; [3]): 0 | Nutsedge plant response rating (purple nutsedge; [4]): 0 | Nutsedge plant response rating (purple nutsedge; [5]): 0 | Plant response rating, Nutsedge (purple nutsedge; [6]): 0 | Plant response rating, Nutsedge (purple nutsedge; [7]): 3 | Plant response rating, Giant foxtail (giant foxtail; [1]): 0 | Giant foxtail plant response rating (giant foxtail; [2]): 6 | Plant response rating, Giant foxtail (giant foxtail; [3]): 7 | Giant foxtail plant response rating (giant foxtail; [4]): 4 | Plant response rating, Giant foxtail (giant foxtail; [6]): 9 | Plant response rating, Giant foxtail (giant foxtail; [7]): 9 | Plant response rating, B. signalgrass (surinam grass; [1]): 0 | B. signalgrass plant response rating (surinam grass; [2]): 0 | Plant response rating, B. signalgrass (surinam grass; [3]): 0 | B. signalgrass plant response rating (surinam grass; [4]): 0 | B. signalgrass plant response rating (surinam grass; [5]): 0 | Plant response rating, B. signalgrass (surinam grass; [6]): 0 | Plant response rating, B. signalgrass (surinam grass; [7]): 4 | Plant response rating, Sugarbeets (sugar beet; [1]): 0 | Sugarbeets plant response rating (sugar beet; [2]): 2 | Sugarbeets plant response rating (sugar beet; [4]): 0 | Sugarbeets plant response rating (sugar beet; [5]): 0 | Plant response rating, Sugarbeets (sugar beet; [6]): 0 | Plant response rating, Sugarbeets (sugar beet; [7]): 3 | Plant response rating, Blackgrass (blackgrass; [1]): 0 | Blackgrass plant response rating (blackgrass; [2]): 0 | Plant response rating, Blackgrass (blackgrass; [3]): 0 | Blackgrass plant response rating (blackgrass; [4]): 1 | Blackgrass plant response rating (blackgrass; [5]): 2 | Plant response rating, Blackgrass (blackgrass; [6]): 3 | Plant response rating, Blackgrass (blackgrass; [7]): 6 | Plant response rating, Wheat (wheat; [1]): 0 | Wheat plant response rating (wheat; [2]): 0 | Wheat plant response rating (wheat; [4]): 0 | Wheat plant response rating (wheat; [5]): 0 | Plant response rating, Wheat (wheat; [6]): 0 | Plant response rating, Wheat (wheat; [7]): 0 | Plant response rating, Wild oats (wild oat; [1]): 0 | Wild oats plant response rating (wild oat; [2]): 0 | Wild oats plant response rating (wild oat; [4]): 0 | Wild oats plant response rating (wild oat; [5]): 0 | Plant response rating, Wild oats (wild oat; [6]): 0 | Plant response rating, Wild oats (wild oat; [7]): 3 | Plant response rating, Velvetleaf (velvetleaf; [1]): 0 | Velvetleaf plant response rating (velvetleaf; [2]): 0 | Velvetleaf plant response rating (velvetleaf; [4]): 0 | Velvetleaf plant response rating (velvetleaf; [5]): 0 | Plant response rating, Velvetleaf (velvetleaf; [6]): 0 | Plant response rating, Velvetleaf (velvetleaf; [7]): 4 | Plant response rating, Rice (0 to 10 scale, 0 is no effect, 10 is complete control) (rice; [8]): 0 | Rice plant response rating (0 to 10 scale, 0 is no effect, 10 is complete control) (rice; [9]): 0 | Rice plant response rating (rice; [10]): 0 | Rice plant response rating (rice; [11]): 0 | Plant response rating, Soybean (soybean; [1]): 4 | Soybean plant response rating (soybean; [2]): 6 | Soybean plant response rating (soybean; [4]): 0 | Soybean plant response rating (soybean; [5]): 0 | Plant response rating, Soybean (soybean; [6]): 0 | Plant response rating, Soybean (soybean; [7]): 0
